For the series, the system named is C4–2B prostate cancer xenografts. The series is classed as in vivo, athymic (BALB/c nu/nu) mice. Particulars: for blood clearance (in words): 1 and 4 h pi.
Where [1] appears, read: C4–2B xenograft, 4 h pi, tail vein injection.
Setting [2] is: C4–2B xenograft, time point not stated at the place (study at 1, 4, 24 h pi).

Where two headings read alike, the source gives them in different places. Bounds are passed on as bounds.

With “3-B10H9-dioxa-5-LuG-dPEG4-Ph-Lys-Ac [[^131I]16b]”, the “tumor concentration relative to [131I]16a” value (C4–2B xenograft) was ~ 4 ×. Besides, the tumor concentration is given as ~ 15 %ID/g under setting [1] and 14–15 %ID/g under setting [2].
Turning to “3-B10H9-dioxa-5-LuG-dPEG12-Ph-Lys-Ac [[^131I]16a]”, the “blood clearance (in words)” value was “rapid blood clearance”. In addition, under “1 h pi”, the highest spleen concentration was 9 %ID/g and the “tumor concentration relative to blood concentration” value is given as 2.3 ×. Further, where the note is “4 h pi”, the kidney concentration is ~ 94 %ID/g and the “tumor concentration relative to blood concentration” value was found to be 4.7 ×. This substance returned a kidney concentration (4 h pi, listed as 16a) of 94 %ID/g. Besides, the tumor concentration (C4–2B xenograft, 1 h pi) is on record as ~ 4 % ID/g. The tumor concentration under setting [1] was ~ 4 %ID/g. The tumor concentration (C4–2B xenograft, at 1 and 4 h pi) is given as < 5 %ID/g. Besides, the tumor concentration under setting [2] is ~ 4 %ID/g.
Take “3-B10H9-dioxa-5-dPEG12CO2H-Ph-Lys-Ac [[^125I]9a]”: the “blood clearance (in words)” value was “rapid blood clearance”. Under “1 h pi”, the “concentration in all the tissues except for the intestine” value is given as “lower than 2 % ID/g” and the intestine concentration is on record as 12 %ID/g. Besides, the “tumor uptake / tumor targeting (in words)” value (C4–2B xenograft) is “essentially no tumor uptake”.
